According to US4608365A, “Treatment of neurologic functions” (priority 1984, dated 1986):

What was measured:
[1] = system: tissue-cultured fetal rat lower motor neurons; test: Trophic-like effect on tissue-cultured fetal rat lower motor neurons (cholineactyltransferase); format: cell-based; conditions: chronic
Description: "Transmitter-like," as used herein, includes not only direct excitatory (or facilitatory) and inhibitory actions on the lower motor neurons, but also any action on lower motor neurons or afferents thereto that results indirectly in such an effect. That excitatory TRH action, increasing patients' strength, is either directly excitatory or facilitatory and perhaps analogous to the lower motor neuron facilitation of glutamate excitation noted with TRH micropipetted into spinal cords of normal amphibia (Nicoll, J. Pharmac. Exp. Therap. 1978; 207: 817-24; Phillis et al., Can. J. Physiol. Pharmacol. 1979; 57: 887-99 and rodents, White Abstr. Soc. Neurosci 1983, 9: 714, and in other animal studies. An inhibitory transmitter-like action seems likely to underlie both the rapid-onset autorefractory phenomenon and the possibly related clinical reduction of spasticity, spasms and cramps. A tachyphalaxis or desensitization phenomenon, perhaps similar to the clinical autorefractory state, has been noted in animal lower motor neurons with larger amounts of TRH micropipetted into the spinal cord (Nicoll and Phillis, et al., supra).

ALS patients [2] = format: in vivo, human
Description: Nine fasting ALS patients (seven men, and two women; duration of disease, two, three, five-sixths of a year, five-sixths of a year, two and a half, four, one, one and four years, respectively) were given intravenous TRH at rates of 0.5-8 mg/minute, total 500 mg during two to five hours in one day, for one or two days. Due to the fact that the effects during the second day resembled those on the first day in the first two patients (men) and because supplies of TRH were limited, […] were treated for one day only. Before and throughout TRH administration, motor functions were repeatedly examined, the tests being selected according to the specific clinical involvement in each patient. Testing in all patients was videotaped. […] For example, muscles (such as biceps, triceps, deltoid, iliopsoas, or peroneal) that could be overcome easily by one finger before TRH administration became completely resistant to the full force of the examiner's hand (i.e., became normal or virtually normal). In one person, thumb abduction and finger-thumb pincer movement, easily overcome before the infusion of TRH, became normal. […] Speech clarity and volume improved. Spasticity of the legs lessened, as evidenced by easier, more rapid and "looser" bicycling-like movement, heel-shin movement and heel-knee tapping of the legs, as well as more agile walking.
As an extension of the Example III and IV studies, a total of twenty-three patients (including those of Examples II and IV) were given 156 intravenous dose-days total.
There were several control aspects of the TRH studies. […] The patients given subcutaneous TRH had treatments interspersed with saline placebo injections. […] The time course of response was not known before the study and, in fact, it was expected that the onset would be later and the duration of response longer than was actually found. Different patients responded to different doses of TRH, and the sex difference in response (woman apparently less responsive) was not expected. […] There were three observers, one unaware of the infusion status. In addition, clinical examinations of all patients of Examples III-VII were videotaped and later reviewed by several observers.

[3] = system: infant with infantile spinal muscular atrophy; design: species or system human; conditions: in vivo
[4] = human, in vivo
Description: In three ALS patients given 25 mg TRH intravenously during 6 minutes, concommitant TRH values were measured in the plasma and serum at 0, 6 and 12 minutes.

ALS patients [5] = test: Transient autorefractory effect, intravenous TRH in ALS patients; format: in vivo, human
Description: To analyze this phenomenon, four ALS patients were given six-minute intravenous pulses of […] of TRH at ten to twenty minute intervals. Each of the first one to five "priming doses" produced or, sustained dramatically-increased strength in responsive muscles. Subsequent identical pulses precipitated an equally dramatic interruption within 18-30 seconds causing rapid loss of all improvement, back to baseline strength or below, i.e., "autorefractoriness." Some weakness of clinically normal limb muscles also sometimes occurred. Eleven autorefractory states of the four patients lasted 12-100 minutes (median 68 minutes) after initial administration of TRH, until spontaneous recovery re-achieved maximal strength benefit. During recovery, strength fluctuated. […] When the autorefractory state first developed, with loss of strength to baseline, increasing the infusion to 1.5 mg/minute rapidly overcame the "block" within one minute, associated with increased strength. Within another minute, complete autorefractoriness reappeared. Raising the rate to 2 mg/minute again reversed this blockage, with strength increased to maximum in thirty seconds, but autorefractoriness reappeared in 1.5 minutes. […] Strength fluctuated between complete blockage and partial reversal for the next 71 minutes until the autorefractoriness fully reversed itself at 81 minutes.

[6] = eleven autorefractory states of four patients

## NC(=O)[C@@H]1CCCN1C(=O)[C@H](Cc1cnc[nH]1)NC(=O)[C@@H]1CCC(=O)N1 [TRH, L-pyroglutamyl-L-histidyl-L-prolinamide]
[1]
  enhancement of cholineactyltransferase: 17 fold
ALS patients [2]; Examples II and III (summary)
  intravenous rate at which striking improvement was shown: 2 mg/min
ALS patients [2]; based on average patient weight of 70 kilograms
  minimum intravenous infusion rate per body weight: ≥ 14.3 μg/minute/kg of body weight
ALS patients [2]; i.v. 0.5-8 mg/minute
  benefit and side-effects in the two women: much less benefit and many fewer side-effects than the men
  quantitative response of women relative to men: resembled those of men on one-half to one-fourth of the TRH dosage
ALS patients [2]; i.v. 2-8 mg/minute
  ankle clonus: decreased or disappeared
  brisk tendon reflexes: diminished not at all or only slightly
  extensor plantar (Babinski) responses: improved, becoming neutral or normal flexor
  fasciculations: appeared to be unchanged
  spasticity of the legs: lessened
  speech clarity and volume: improved
  vital capacity: increased, by as much as one liter
ALS patients [2]; i.v., total 500 mg
  residual improvement after the end of the infusion: some slight improvement still evident twenty hours after the end of the infusion
ALS patients [2]; i.v., total 500 mg during two to five hours
  time improvements were sustained after the infusion: one-half to one hour afterwards
ALS patients [2]; men, i.v. 2-8 mg/minute, in some areas of involvement
  improvement of muscle weakness and spasticity: striking improvement
ALS patients [2]; summary
  duration of full benefit after intravenous infusions: up to one hour
[3]
  safety and benefit on strength: safety without side-effects and possible benefit on strength
[4]
  cerebrospinal fluid TRH level: ≤ 5368 pg/mL
ALS patients [5]; continuous i.v. 1-8 mg/minute, all patients
  onset of waning-waxing of TRH-increased lower motor neuron strength: as early as three to thirty minutes
ALS patients [5]; [6]
  duration of autorefractory states: 12 to 100 min
  median duration of autorefractory states: 68 min
ALS patients [5]; one ALS patient
  partial reversal of autorefractoriness after TRH was stopped: partially reversed at ten minutes
  time to full reversal of autorefractoriness after TRH was stopped: 81 min
ALS patients [5]; one ALS patient, 1 mg/minute continuous i.v.
  strength: markedly increased their strength
ALS patients [5]; one ALS patient, 2.5 mg/minute for nine minutes
  strength after raising the rate during autorefractoriness: failed to increase strength
ALS patients [5]; six-minute i.v. pulses of 4.17 mg/minute at ten to twenty minute intervals, four ALS patients
  time to interruption (loss of all improvement) after subsequent identical pulses: 18 to 30 s
